Data reported in article PMC9356065, “Novel psoralen derivatives as anti-breast cancer agents and their light-activated cytotoxicity against HER2 positive breast cancer cells” (Scientific Reports, 2022).
Structures can show the parent of a compound that is named as a salt. Where two headings read alike, the source gives them in different places.

Key:
[1] = target: T1, aromatase (CYP19) (Homo sapiens, UniProt P11511); experiment: Inhibition of aromatase (AIA); type: biochemical; conditions: at 12.5 µM; I = %inhibition lower than 50%; read-out: Aromatase inhibitory activity %Inhibition
T1 sequence (P11511 1-503): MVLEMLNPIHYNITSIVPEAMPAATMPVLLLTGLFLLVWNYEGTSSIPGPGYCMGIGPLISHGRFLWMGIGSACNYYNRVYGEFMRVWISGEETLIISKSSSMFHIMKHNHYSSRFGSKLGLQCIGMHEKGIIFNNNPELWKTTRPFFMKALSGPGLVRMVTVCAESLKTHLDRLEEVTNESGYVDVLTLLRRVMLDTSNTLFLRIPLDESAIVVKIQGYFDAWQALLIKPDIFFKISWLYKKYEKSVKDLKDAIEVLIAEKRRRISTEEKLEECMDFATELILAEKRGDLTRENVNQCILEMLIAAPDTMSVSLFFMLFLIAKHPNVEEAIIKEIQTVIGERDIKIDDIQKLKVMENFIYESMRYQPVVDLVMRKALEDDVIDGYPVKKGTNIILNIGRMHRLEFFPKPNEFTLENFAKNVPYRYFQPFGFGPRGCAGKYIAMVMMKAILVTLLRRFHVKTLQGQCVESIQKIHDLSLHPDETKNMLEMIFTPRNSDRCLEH
Description: Estrogens are the critical risk factor for breast cancer initiation and progression and the aromatase enzyme involves in the final step conversion of androgens to estrogens[21],[22]. […] In this study, the synthesized psoralen derivatives were also tested for aromatase inhibitory activity (AIA) which is considered to be one of chemopreventive mechanisms for hormone dependent breast cancer.
Inhibition of the aromatase was performed using the method designed by Stresser et al.[39].

[2] = MTT cytotoxicity towards normal cells, 48 h; type: cell-based; conditions: MRC-5 cells (normal embryonic lung fibroblasts), human embryonal lung fibroblast cell, without UVA, read-out: Cytotoxic activity MRC-5 IC50
Description: (§1) Additionally, the cytotoxicity towards normal cells, human embryonal lung fibroblast cell MRC-5 was also assessed.
(§2) MDA-MB-231 (triple-negative breast cancer) was obtained from M.D. Anderson Cancer Center, Houston, TX, USA). T47-D (hormone-dependent breast carcinoma), SK-BR-3 (human HER2+ breast cancer), and MRC-5 (normal embryonic lung fibroblast) were obtained from the American Type Culture Collection (ATCC, Manassas, VA, USA).
(§3) The cytotoxic effect of tested compounds was evaluated in two breast cancer cell lines, MDA-MB-231 and T47-D. Number of survival cells after exposure to tested compounds for 48 h was determined by MTT assay, as previously described.

[3] = Inhibition of superoxide radical formation by xanthine/xanthine oxidase (XXO); type: biochemical; conditions: screening concentration 500 µM
Description: 1. […]

[4] = Scavenging of diphenyl-picryl-hydrazyl radicals (DPPH); conditions: screening concentration 250 µM
Description: 1. Chemoprevention activity

[5] = test system: T47-D; experiment: MTT cytotoxicity, 48 h, without UVA; type: cell-based, human; conditions: for IC50: hormone-dependent breast cancer, read-out: Cytotoxic activity T47-D IC50; for Selectivity Index (SI): SI = IC50 for MRC-5/IC50 for T47-D
Description: as §1, §2, §3

[6] = test system: MDA-MB-231; experiment: MTT cytotoxicity, 48 h, without UVA; type: cell-based; conditions: Homo sapiens, MDA-MB-231, light or radiation study; for IC50: hormone-independent breast cancer, read-out: Cytotoxic activity MDA-MB-231 IC50
Description: as §2, §3

[7] = test system: differentiated HL-60 cells; experiment: Inhibition of TPA-induced superoxide anion radical generation (HL-60 Antioxidant); type: cell-based, human; conditions: Homo sapiens, HL-60; screening concentration 100 µM; read-out: HL-60 Antiox. %Inh
Description: Inhibition of 12-O-tetradecanoylphorbol-13-acetate (TPA)-induced superoxide anion radical generation in differentiated HL-60 cells (HL-60 Antioxidant) TPA-induced superoxide anion radical formation was detected in differentiated HL-60 cells by photometric determination of cytochrome c reduction as previously described by Gerhäuser et al., 2003.ii Superoxide dismutase (SOD;15U) was a positive control. […]

[8] = test system: MCF-7; conditions: Fig. 1d; cited from earlier work
[9] = test system: MDA-MB-231; parameters: method as in doi:10.1007/s00044-014-1312-6; conditions: previously reported; cited from earlier work
[10] = test system: MDA-MB-231; experiment: Dark and light-activated (UVA) cytotoxicity, MTT; type: cell-based; conditions: Homo sapiens, MDA-MB-231, light or radiation study; irradiation with UVA (2.0 J cm^−2); HER2− breast cancer
Description: (§4) The selected compounds were screened for their IC50 values against both HER2+ breast cancer (SK-BR-3), and HER2− breast cancer (MDA-MB-231) in both dark and light-activated conditions (Table 2). Additionally, a negative control study was also performed with SK-BR-3 and MDA-MB-231 cells in the absence of tested compound under UVA irradiation (See Fig S7., Supporting Information).
(§5) SK-BR-3 and MDA-MB-231 cells were seeded into 96-well cell culture plates at 5 × 10^3 cells/well and incubated for 24 h at 37 °C under 5% CO2. After that, the cells were treated with 50 μM of psoralen derivatives in DMEM with 10% FBS and the cells were continued incubation for another 4 h. After incubation, the cells were washed with PBS (3 times) and then irradiated by a 365 nm lamp with the light intensity of 2.0 J cm^−2 for 12.5 min before re-incubation for another 72 h. After incubation, the cell was treated with methylthiazolyldiphenyl-tetrazolium bromide (MTT reagent 200 μL, 0.5 mg mL^−1, Sigma-Aldrich) for 2 h. After reagent removal, DMSO was added to dissolve the formazan product and the cell viabilities were determined through UV–Vis absorption of the resulting formazan at wavelength 560 nm using a microplate reader (BMG Labtech/SPECTROstar Nano). The cell morphology images were captured by using a light microscope (Microscope Nikon, inverted digital) at 20X magnification prior to treating with MTT reagent.

[11] = test system: MDA-MB-231; experiment: Dark and light-activated (UVA) cytotoxicity, MTT; type: cell-based; conditions: Homo sapiens, dark, HER2− breast cancer
[12] = test system: circulating estrogen levels; parameters: method as in PMID 10098905; conditions: female rats, dose-dependent; cited from earlier work
[13] = test system: SK-BR-3; experiment: Dark and light-activated (UVA) cytotoxicity, MTT; type: cell-based; conditions: Homo sapiens, dark, HER2+ breast cancer
[14] = test system: SK-BR-3; experiment: Dark and light-activated (UVA) cytotoxicity, MTT; type: cell-based, human; conditions: for IC50: Homo sapiens, SK-BR-3, light or radiation study, irradiation with UVA (2.0 J cm^−2), HER2+ breast cancer
Description: as §4, §5

[15] = test system: 3T3; parameters: method as in PMID 32815004, PMID 20693013; conditions: cited from earlier work
[16] = test system: SK-BR-3 cells; experiment: Cell morphology by light microscope; type: cell-based, human; conditions: 48 h
Description: as §5, with “After incubation, the cells were washed with PBS (3 times) and then irradiated by a 365 nm lamp with the light intensity of 2.0 J cm^−2 for 12.5 min before re-incubation for another 72 h.” left out

[17] = test system: estrogen receptor in MCF-7 breast cancer cells; parameters: method as in PMID 23053665; conditions: MCF-7 breast cancer cells and tamoxifen-resistant clone; cited from earlier work
[18] = test system: ERα activity in MCF-7 cells; parameters: method as in PMID 31673107; conditions: read-out: IC50 antagonism of ERα activity in MCF-7 cells; cited from earlier work
[19] = Homo sapiens, T47D, light or radiation study, 48 h, without UVA

COc1c2occc2c(NC(=O)c2cccc([N+](=O)[O-])c2)c2ccc(=O)oc12 [3f, N-(9-Methoxy-7-oxo-7H-furo[3,2-g]chromen-4-yl)-3-nitrobenzamide]
inhibition at 12.5 µM [1]: 4% | IC50 at 48 h [2]: 77.3 ± 3.52 µM | XXO %Inh [3]: 33% | DPPH %Inh [4]: 1% | IC50 [5, 19]: 49.8 ± 0.5 µM | Selectivity Index (SI) [5]: 1.6 | melting point: 267 to 268 °C | IC50 [6]: 71 ± 2.34 µM | inhibition at 100 µM [7]: 7%

COc1c2occc2c(NC(=O)C23CC4CC(CC(C4)C2)C3)c2ccc(=O)oc12 [3n, (3r,5r,7r)-N-(9-Methoxy-7-oxo-7H-furo[3,2-g]chromen-4-yl)adamantane-1-carboxamide]
inhibition at 12.5 µM [1]: 5% | XXO %Inh [3]: 47% | IC50 [8]: 0.48 µM | DPPH %Inh [4]: 1% | IC50 [5, 19]: 43.06 ± 0.09 µM | Selectivity Index (SI) [5]: > 3.0 | melting point: 240 to 242 °C | IC50 [9]: 2 µM | IC50 [6]: > 100 µM | inhibition at 100 µM [7]: 8%

COc1c2occc2cc2ccc(=O)oc12 [8-MOP, 8-methoxypsoralen, reference compound]
IC50 [10]: > 100 µM | inhibition at 50 µg/mL ([5]; Homo sapiens, T47D, light or radiation study, 48 h, without UVA, I = %inhibition lower than 50%, read-out: Cytotoxic activity T47-D %Inhibition): 16% | IC50 [11]: > 100 µM | circulating estrogen levels [12]: significantly reduced | inhibition at 50 µg/mL ([6]; I = %inhibition lower than 50%, read-out: Cytotoxic activity MDA-MB-231 %Inhibition): 6% | IC50 [13]: > 100 µM | dark and light-activated cytotoxicity against SK-BR-3 (%viability screening) ([14]; 50 µM, absence and presence of UVA (2.0 J cm^−2), Fig. 3): little to no activity | IC50 [14]: 24.7 ± 3.02 µM

COc1cccc2c1C(=O)c1c(O)c3c(c(O)c1C2=O)C[C@@](O)(C(=O)CO)C[C@@H]3O[C@H]1C[C@H](N)[C@H](O)[C@H](C)O1 [Doxorubicin, reference compound]
IC50 at 48 h [2]: 3.07 ± 0.22 µM | IC50 [5, 19]: 1.46 ± 2.79 µM | Selectivity Index (SI) [5]: 2.1 | IC50 [6]: 3.16 ± 0.26 µM

CS(=O)(=O)CCNCc1ccc(-c2ccc3ncnc(Nc4ccc(OCc5cccc(F)c5)c(Cl)c4)c3c2)o1 [Lapatinib, reference compound]
IC50 [10]: 8.6 ± 0.82 µM | IC50 at 48 h [2]: 48.8 ± 9.45 µM | phototoxic potential (3T3 NRU assay) [15]: phototoxic potential | morphology of SK-BR-3 cells under light activation ([16]; UVA 2.0 J cm^−2): morphological changes indicating apoptosis | morphology of SK-BR-3 cells under dark condition ([16]; dark): morphological changes indicating apoptosis | IC50 [5, 19]: 9.78 ± 0.46 µM | Selectivity Index (SI) [5]: 5.0 | IC50 [11]: 73 ± 2.53 µM | IC50 [6]: 53.37 ± 0.31 µM | IC50 [13]: 25.3 ± 0.99 µM | IC50 [14]: 0.16 ± 0.03 µM

CC/C(=C(\c1ccccc1)c1ccc(OCCN(C)C)cc1)c1ccccc1 [Tamoxifen citrate, reference compound]
IC50 at 48 h [2]: 67.6 ± 10.5 µM | IC50 [5, 19]: 20.9 ± 1.31 µM | IC50 [6]: 66 ± 2.48 µM

COc1c2occc2c(NC(=O)c2cccc3ccccc23)c2ccc(=O)oc12 [VIb]
IC50 (MCF-7) [8]: Inactive | IC50 [9]: 100 µM

C=CCNc1c2ccoc2c(OC)c2oc(=O)ccc12 [Va]
IC50 [8]: 3.87 µM | IC50 [9]: 5 µM

COc1c2occc2c(NCc2ccccc2)c2ccc(=O)oc12 [Vb]
IC50 [8]: 1.09 µM | IC50 [9]: 3 µM

COc1c2ccoc2cc2oc(=O)ccc12 [bergapten]
levels of estrogen receptor [17]: reduced | IC50 [18]: 1.2 µM | circulating estrogen levels [12]: significantly reduced

CC(C)=CCOc1c2ccoc2cc2oc(=O)ccc12 [isoimperatorin]
IC50 [18]: 54.3 µM

O=c1ccc2cc3ccoc3cc2o1 [psoralen]
IC50 [18]: 24.1 µM

O=c1ccc2cc3ccoc3c(O)c2o1 [xanthotoxol]
IC50 [18]: 0.7 µM
